A value given as a limit tells only on which side of the number the result lay.

One data set can be described thus: physchem. Particulars: 25 °C, thermodynamic from solid.
Data set [1] in a line: Equilibrium solubility in aqueous solvents, concentration by HPLC. To be noted: 25° C., mixing at least 12 hours, listed as dihydrochloric acid salt, dihydrochloride.
Protocol: (§1) The sample concentration was then determined by HPLC using a single point calibration.
Setting [2] is: 0.1 N aqueous HCl, simulated gastric fluid.
The mark [3] stands for this setting: pH 7.4 buffer, pH 7.4, aqueous buffer.
Where [4] appears, read: pH 8.0 buffer, pH 8, aqueous buffer.

Protocol for physchem: as §1

In the case of `CNC(=O)c1ccc(-c2cnc3ncc(Cc4ccc5ncccc5c4)n3n2)cc1F.Cl.Cl` [Compound 21, 2-Fluoro-N-methyl-4-(7-(quinolin-6-ylmethyl)imidazo[1,2-b][1,2,4]triazin-2-yl)benzamide dihydrochloride], the solubility in “physchem” (setting [2]) was approximately 24000 µg/mL; in the data set “physchem” (setting [3]) it was 2 µg/mL; in “physchem” (setting [4]), 2 µg/mL; in “physchem” (water), approximately 4900 µg/mL. Also, the solubility in water result in data set [1] is “approximately 4.5 mg/mL”.

`CNC(=O)c1ccc(-c2cnc3ncc(Cc4ccc5ncccc5c4)n3n2)cc1F.O=S(=O)(O)c1ccccc1.O=S(=O)(O)c1ccccc1` [dibenzenesulfonic acid salt, 2-Fluoro-N-methyl-4-[7-(quinolin-6-ylmethyl)imidazolo[1,2-b][1,2,4]triazin-2-yl]benzamide dibenzenesulfonic acid salt]: the solubility in “physchem” (setting [2]) was not below 29000 µg/mL; in “physchem” (setting [3]) it was 3 µg/mL; in the data set “physchem” (setting [4]), 3 µg/mL; in the data set “physchem” (water), approximately 3900 µg/mL.

By solubility is commonly meant how much of the substance goes into solution per volume. Low values mean a poorly soluble substance, high ones a readily soluble substance.
